This is an account of results in US9290451B2 (Hoffmann-La Roche Inc., priority 2011, dated 2016).

One assay deals with human CB2 receptors (Homo sapiens (Human), UniProt P34972). Put plainly: cAMP assay, CHO cells expressing human CB2 receptors. The class given is cell-based. Conditions: CHO cells expressing human CB2, cAMP; read-out: human CB2 EC50. In outline: (§1)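 Seed CHO cells 17–24 h ahead; replace medium with Krebs Ringer bicarbonate containing 1 mM IBMX for 30 min at 30 °C; add compounds for 30 min at 30 °C; lyse, add TR-FRET cAMP reagents for 2 h at room temperature; read and convert to cAMP via standard curve; fit EC50.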
Chain of human CB2 receptors (P34972 whole entry): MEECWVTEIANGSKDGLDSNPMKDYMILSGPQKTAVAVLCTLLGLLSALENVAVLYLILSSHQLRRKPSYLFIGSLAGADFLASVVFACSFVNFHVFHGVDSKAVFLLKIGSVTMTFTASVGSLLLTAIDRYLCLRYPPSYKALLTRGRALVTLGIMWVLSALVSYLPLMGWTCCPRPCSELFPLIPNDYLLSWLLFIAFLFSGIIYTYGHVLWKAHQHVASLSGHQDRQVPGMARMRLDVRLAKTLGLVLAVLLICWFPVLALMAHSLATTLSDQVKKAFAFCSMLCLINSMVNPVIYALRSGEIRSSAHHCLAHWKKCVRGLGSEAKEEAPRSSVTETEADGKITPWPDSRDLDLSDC

In a further assay the target is human CB1 receptors (Homo sapiens (Human), UniProt P21554). Put plainly: cAMP assay, CHO cells expressing human CB1 receptors. The class given is cell-based. Conditions: CHO cells expressing human CB1, cAMP; read-out: human CB1 EC50. The procedure, abridged: as §1
Chain of human CB1 receptors (P21554 whole entry): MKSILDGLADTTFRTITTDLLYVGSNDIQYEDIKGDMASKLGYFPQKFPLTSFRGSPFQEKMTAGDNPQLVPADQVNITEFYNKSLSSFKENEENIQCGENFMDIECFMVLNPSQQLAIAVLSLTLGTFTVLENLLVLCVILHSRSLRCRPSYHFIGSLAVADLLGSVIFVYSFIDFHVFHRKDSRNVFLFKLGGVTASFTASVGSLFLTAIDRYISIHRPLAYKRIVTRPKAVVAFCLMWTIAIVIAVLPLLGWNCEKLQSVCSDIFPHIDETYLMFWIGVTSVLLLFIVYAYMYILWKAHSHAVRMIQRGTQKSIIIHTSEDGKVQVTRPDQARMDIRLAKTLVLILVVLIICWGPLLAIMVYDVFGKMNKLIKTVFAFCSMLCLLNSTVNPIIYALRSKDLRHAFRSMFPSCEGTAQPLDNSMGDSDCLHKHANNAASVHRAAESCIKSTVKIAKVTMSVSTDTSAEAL

pEC50: −log10 of the molar value.

Consider `CCC(CC)(NC(=O)c1ccc(N2CCC(F)(F)C2)c(OCC2CC2)n1)C(=O)NC` [Example 78, 6-Cyclopropylmethoxy-5-(3,3-difluoro-pyrrolidin-1-yl)-pyridine-2-carboxylic acid (1-ethyl-1-methylcarbamoyl-propyl)-amide], for which the pEC50 on human CB2 receptors was 8.34; at human CB1 receptors, less than 5.00.
Turning to `O=C(c1ccc(N2CCC(F)(F)C2)c(OCC2CC2)n1)N1CCS(=O)(=O)CC1` [Example 79], the figures for the pEC50 on human CB2 receptors and at human CB1 receptors were 5.69 and less than 5.00, respectively.
Take `CNC(=O)C(C)(C)NC(=O)c1ccc(N2CCC(F)(F)C2)c(OCC2CC2)n1` [Example 80, 6-Cyclopropylmethoxy-5-(3,3-difluoro-pyrrolidin-1-yl)-pyridine-2-carboxylic acid (1-methyl-1-methylcarbamoyl-ethyl)-amide]: the pEC50 was 6.87 at human CB2 receptors and 8.24 at human CB1 receptors.
On to `CCC(CC)(NC(=O)c1ccc(OC)c(-c2cccc(Cl)c2)n1)C(=O)NC` [Example 81, 6-(3-Chloro-phenyl)-5-methoxy-pyridine-2-carboxylic acid (1-ethyl-1-methylcarbamoyl-propyl)-amide], for which the negative logarithm of the EC50 (pEC50) is 6.38 on human CB2 receptors and less than 5.00 on human CB1 receptors.
The matching figures for `COc1ccc(C(=O)NC(C)(C)c2nccs2)nc1-c1cccc(Cl)c1` [Example 82, 6-(3-Chloro-phenyl)-5-methoxy-pyridine-2-carboxylic acid (1-methyl-1-thiazol-2-yl-ethyl)-amide]: 6.85 and 5.64.
As to `CC(C)(NC(=O)c1ccc(Cl)c(OCC2CC2)n1)c1ncon1` [Example 83, 5-Chloro-6-cyclopropylmethoxy-pyridine-2-carboxylic acid (1-methyl-1-[1,2,4]oxadiazol-3-yl-ethyl)-amide], the figures for the negative-log EC50 (pEC50) on human CB2 receptors and on human CB1 receptors were 6.46 and less than 5.00, respectively.
For `O=C(NC1CCCCC1O)c1cccc(C2CCCCC2)n1` (stereo not shown) [Example 84, 6-Cyclohexyl-pyridine-2-carboxylic acid (2-hydroxy-cyclohexyl)-amide] the same measures were 6.53 and less than 5.00.
For `CCC(CC)(NC(=O)c1ccc(C2CCOCC2)c(OCC2CC2)n1)C(=O)NC` [Example 85, 6-Cyclopropylmethoxy-5-(tetrahydro-pyran-4-yl)-pyridine-2-carboxylic acid (1-ethyl-1-methylcarbamoyl-propyl)-amide] the same measures were 6.73 and less than 5.00.
For `CCC(CC)(NC(=O)c1ccc(N2CC(F)(F)C2)c(OCC2CC2)n1)C(=O)NC` [Example 86, 6-Cyclopropylmethoxy-5-(3,3-difluoro-azetidin-1-yl)-pyridine-2-carboxylic acid (1-ethyl-1-methylcarbamoyl-propyl)-amide] the same measures were 7.48 and less than 5.00.
`CNC(=O)C(C)(C)NC(=O)c1ccc(N2CC(F)(F)C2)c(OCC2CC2)n1` [Example 87, 6-Cyclopropylmethoxy-5-(3,3-difluoro-azetidin-1-yl)-pyridine-2-carboxylic acid (1-methyl-1-methylcarbamoyl-ethyl)-amide]: the pEC50 is 6.32 at human CB2 receptors and less than 5.00 at human CB1 receptors.
In the case of `CC(C)(NC(=O)c1ccc(Cl)c(-c2cccc(Cl)c2)n1)c1ncon1` [Example 88, 5-Chloro-6-(3-chloro-phenyl)-pyridine-2-carboxylic acid (1-methyl-1-[1,2,4]oxadiazol-3-yl-ethyl)-amide], the pEC50 on human CB2 receptors is 6.45; at human CB1 receptors it was less than 5.00.
The matching figures for `COc1ccc(C(=O)NC(C)(C)c2noc(C)n2)nc1-c1cccc(Cl)c1` [Example 89, 6-(3-Chloro-phenyl)-5-methoxy-pyridine-2-carboxylic acid [1-methyl-1-(5-methyl-[1,2,4]oxadiazol-3-yl)-ethyl]-amide]: 6.93 and 5.87.
For `COc1ccc(C(=O)NC(C)(C)c2ncco2)nc1-c1cccc(Cl)c1` [Example 90, 6-(3-Chloro-phenyl)-5-methoxy-pyridine-2-carboxylic acid (1-methyl-1-oxazol-2-yl-ethyl)-amide] the same measures were 6.66 and less than 5.00.
The matching figures for `CCC(CC)(NC(=O)c1ccc(Cl)c(-c2cccc(Cl)c2)n1)C(=O)NC` [Example 91, 5-Chloro-6-(3-chloro-phenyl)-pyridine-2-carboxylic acid (1-ethyl-1-methylcarbamoyl-propyl)-amide]: 6.20 and less than 5.00.
Consider `COC(=O)C1CCCCC1NC(=O)c1cccc(C2CCCCC2)n1` (stereo not shown) [Example 92, 2-[(6-Cyclohexyl-pyridine-2-carbonyl)-amino]-cyclohexanecarboxylic acid methyl ester], for which the pEC50 on human CB2 receptors is 6.49; at human CB1 receptors, less than 5.00.
For `CC(C)(NC(=O)c1ccc(C2CCOCC2)c(OCC2CC2)n1)c1ncco1` [Example 93, 6-Cyclopropylmethoxy-5-(tetrahydro-pyran-4-yl)-pyridine-2-carboxylic acid (1-methyl-1-oxazol-2-yl-ethyl)-amide] the same measures were 6.92 and less than 5.00.
Turning to `O=C(NN1CCCCC1)c1cccc(C2CCCC2)n1` [Example 94, 6-Cyclopentyl-pyridine-2-carboxylic acid piperidin-1-ylamide], the pEC50 on human CB2 receptors was 6.89; on human CB1 receptors, less than 5.00.
For `CC(C)(NC(=O)c1ccc(C2CC2)c(-c2cccc(Cl)c2)n1)c1ncco1` [Example 95, 6-(3-Chloro-phenyl)-5-cyclopropyl-pyridine-2-carboxylic acid (1-methyl-1-oxazol-2-yl-ethyl)-amide] the same measures were 7.08 and less than 5.00.
The matching figures for `Cc1nc(C(C)(C)NC(=O)c2ccc(C3CC3)c(-c3cccc(Cl)c3)n2)no1` [Example 96, 6-(3-Chloro-phenyl)-5-cyclopropyl-pyridine-2-carboxylic acid [1-methyl-1-(5-methyl-[1,2,4]oxadiazol-3-yl)-ethyl]-amide]: 7.02 and 5.84.
Take `NC(=O)[C@H](CC1CC1)NC(=O)c1ccc(C2CC2)c(-c2cccc(Cl)c2)n1` [Example 97, 6-(3-Chloro-phenyl)-5-cyclopropyl-pyridine-2-carboxylic acid ((S)-1-carbamoyl-2-cyclopropyl-ethyl)-amide]: the pEC50 was 6.29 on human CB2 receptors and less than 5.00 on human CB1 receptors.
For `NC(=O)[C@H](CC1CC1)NC(=O)c1ccc(C2CC2)c(OCC2CC2)n1` [Example 98, 5-Cyclopropyl-6-cyclopropylmethoxy-pyridine-2-carboxylic acid ((S)-1-carbamoyl-2-cyclopropyl-ethyl)-amide] the same measures were 7.56 and less than 5.00.
Turning to `O=C(N[C@@H](CC1CC1)c1nccs1)c1ccc(C2CC2)c(OCC2CC2)n1` [Example 99, 5-Cyclopropyl-6-cyclopropylmethoxy-pyridine-2-carboxylic acid ((S)-2-cyclopropyl-1-thiazol-2-yl-ethyl)-amide], the figures for the negative-log EC50 (pEC50) at human CB2 receptors and at human CB1 receptors were 7.22 and less than 5.00, respectively.
For `CC(C)C[C@H](NC(=O)c1ccc(C2CC2)c(OCC2CC2)n1)C(N)=O` [Example 100, 5-Cyclopropyl-6-cyclopropylmethoxy-pyridine-2-carboxylic acid ((S)-1-carbamoyl-3-methyl-butyl)-amide] the same measures were 8.92 and 6.10.
